pIC50: −log10 of the molar value.
Key:
rat TRPA1 = target: T1, rat TRPA1 (Rattus norvegicus, UniProt Q6RI86); assay: 45Calcium uptake assay: inhibition of AITC induced cellular uptake of radioactive calcium, rat TRPA1 expressing CHO cells; type: cell-based; details: AITC 10 μM; for pIC50: class symbols; for inhibition at 10 µM: 10.0 μM compound, read-out: rat TRPA1 Percentage inhibition at 10.0 μM; for inhibition at 1 µM: read-out: rat TRPA1 Percentage inhibition
T1 construct: expressed in transfected cells; host or cells: CHO cells (Zeocin selection)
T1 sequence (Q6RI86 whole entry): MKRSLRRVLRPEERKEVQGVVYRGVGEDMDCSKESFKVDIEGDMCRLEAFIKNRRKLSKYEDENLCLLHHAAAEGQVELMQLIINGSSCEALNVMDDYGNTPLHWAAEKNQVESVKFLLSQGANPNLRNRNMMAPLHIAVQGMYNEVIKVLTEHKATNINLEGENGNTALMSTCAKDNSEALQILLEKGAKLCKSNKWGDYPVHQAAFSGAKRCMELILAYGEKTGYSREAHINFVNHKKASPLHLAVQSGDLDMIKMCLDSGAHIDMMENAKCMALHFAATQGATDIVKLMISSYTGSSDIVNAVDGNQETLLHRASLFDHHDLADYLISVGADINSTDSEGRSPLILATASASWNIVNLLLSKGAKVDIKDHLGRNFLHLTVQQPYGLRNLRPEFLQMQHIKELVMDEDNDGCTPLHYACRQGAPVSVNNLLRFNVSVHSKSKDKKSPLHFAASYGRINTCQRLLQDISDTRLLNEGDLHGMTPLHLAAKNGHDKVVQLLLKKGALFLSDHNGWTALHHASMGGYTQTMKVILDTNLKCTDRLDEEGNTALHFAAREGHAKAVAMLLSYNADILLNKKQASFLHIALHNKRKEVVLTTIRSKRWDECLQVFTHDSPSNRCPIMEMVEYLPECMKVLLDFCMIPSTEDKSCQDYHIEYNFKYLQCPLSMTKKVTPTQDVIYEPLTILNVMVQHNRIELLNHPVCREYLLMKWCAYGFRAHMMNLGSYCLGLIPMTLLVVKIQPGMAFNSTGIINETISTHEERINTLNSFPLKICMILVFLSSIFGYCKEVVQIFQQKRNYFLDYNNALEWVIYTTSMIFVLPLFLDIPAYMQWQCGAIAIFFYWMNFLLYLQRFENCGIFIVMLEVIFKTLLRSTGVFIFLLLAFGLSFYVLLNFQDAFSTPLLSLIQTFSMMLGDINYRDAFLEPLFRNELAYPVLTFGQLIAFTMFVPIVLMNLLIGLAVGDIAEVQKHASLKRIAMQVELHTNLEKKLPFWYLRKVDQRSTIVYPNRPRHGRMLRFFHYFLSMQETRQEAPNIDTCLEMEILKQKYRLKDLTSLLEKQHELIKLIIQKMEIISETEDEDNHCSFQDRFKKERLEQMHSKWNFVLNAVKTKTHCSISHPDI
Summary of the method: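 CHO cells expressing rat or human TRPA1 were pre-treated with compound for 10 min, then given AITC (30 μM human, 10 μM rat) plus 5 μCi/ml 45Ca2+ for 3 min; final DMSO 0.5%. Lysate radioactivity was counted by scintillation. IC50 came from nonlinear regression of concentration-response curves as % of maximal response.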

human TRPA1 = target: T2, human TRPA1 (Homo sapiens, UniProt O75762); assay: 45Calcium uptake assay: inhibition of AITC induced cellular uptake of radioactive calcium, human TRPA1 expressing CHO cells; type: cell-based; details: AITC 30 μM; for inhibition at 1 µM: 1.0 μM compound, read-out: human TRPA1 Percentage inhibition at 1.0 μM; for inhibition at 10 µM: 10.0 μM compound, read-out: human TRPA1 Percentage inhibition at 10.0 μM
T2 construct: expressed in transfected cells; host or cells: CHO cells (G-418 selection)
T2 sequence (O75762 whole entry): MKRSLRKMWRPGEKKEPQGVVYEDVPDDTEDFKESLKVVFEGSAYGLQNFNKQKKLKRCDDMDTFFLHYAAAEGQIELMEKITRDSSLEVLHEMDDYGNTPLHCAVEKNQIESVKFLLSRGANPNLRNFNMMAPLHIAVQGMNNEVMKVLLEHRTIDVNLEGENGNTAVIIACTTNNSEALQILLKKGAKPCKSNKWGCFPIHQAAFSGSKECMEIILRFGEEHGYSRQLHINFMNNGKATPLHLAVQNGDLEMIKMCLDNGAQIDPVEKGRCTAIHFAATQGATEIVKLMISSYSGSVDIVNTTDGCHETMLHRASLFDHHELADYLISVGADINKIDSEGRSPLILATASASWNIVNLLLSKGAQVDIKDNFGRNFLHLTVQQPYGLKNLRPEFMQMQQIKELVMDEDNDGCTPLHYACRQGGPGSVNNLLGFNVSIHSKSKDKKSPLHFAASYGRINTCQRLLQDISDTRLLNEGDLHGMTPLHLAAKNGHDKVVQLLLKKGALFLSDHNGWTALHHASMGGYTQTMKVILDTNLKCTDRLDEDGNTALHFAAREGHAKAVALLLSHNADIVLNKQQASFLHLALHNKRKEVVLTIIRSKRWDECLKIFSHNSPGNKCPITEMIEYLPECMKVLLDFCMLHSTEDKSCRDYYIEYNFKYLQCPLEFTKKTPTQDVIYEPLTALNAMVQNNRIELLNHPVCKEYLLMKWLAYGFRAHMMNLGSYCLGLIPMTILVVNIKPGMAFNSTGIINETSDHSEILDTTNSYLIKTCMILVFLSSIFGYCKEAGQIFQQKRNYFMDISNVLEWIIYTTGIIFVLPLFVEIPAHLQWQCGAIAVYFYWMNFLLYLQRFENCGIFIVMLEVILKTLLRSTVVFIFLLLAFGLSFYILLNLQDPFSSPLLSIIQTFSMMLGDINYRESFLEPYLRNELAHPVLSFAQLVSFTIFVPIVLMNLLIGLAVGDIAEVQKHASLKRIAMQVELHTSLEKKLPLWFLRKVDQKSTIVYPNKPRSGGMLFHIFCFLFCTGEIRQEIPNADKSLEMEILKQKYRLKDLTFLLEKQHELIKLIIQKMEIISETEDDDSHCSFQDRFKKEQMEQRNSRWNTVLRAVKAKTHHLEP
Summary of the method: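 CHO cells expressing TRPA1 were preincubated 10 min with compound (0.5% DMSO final), then given AITC (30 μM human, 10 μM rat) plus 5 μCi/ml 45Ca2+ for 3 min. Lysate radioactivity measured by scintillation; IC50 obtained by nonlinear regression of % maximal response without antagonist.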

SMILES	pIC50 (rat TRPA1)	pIC50 (human TRPA1; class symbols)	inhibition at 10 µM (rat TRPA1)	inhibition at 1 µM (rat TRPA1)	inhibition at 1 µM (human TRPA1)	inhibition at 10 µM (human TRPA1)	pIC50 (human TRPA1; numeric values)
Cc1oc2c(c1CC(=O)Nc1nc(-c3ccc(Cl)c(Cl)c3)cs1)c(=O)n(C)c(=O)n2C [Example 54, N1-[4-(3,4-Dichlorophenyl)-1,3-thiazol-2-yl]-2-(1,3,6-trimethyl-2,4-dioxo-1,2,3,4-tetrahydrofuro[2,3-d]pyrimidin-5-yl)acetamide]	7.00 to 7.30	> 7.30	–	–	–	–	–
Cc1oc2c(c1CC(=O)Nc1nc(-c3cccc(Cl)c3Cl)cs1)c(=O)n(C)c(=O)n2C [Example 55, N1-[4-(2,3-Dichlorophenyl)-1,3-thiazol-2-yl]-2-(1,3,6-trimethyl-2,4-dioxo-1,2,3,4-tetrahydrofuro[2,3-d]pyrimidin-5-yl)acetamide]	–	–	100%	97.7%	95.8%	99%	–
Cc1oc2c(c1CC(=O)Nc1nc(-c3ccc(C(F)(F)F)cc3F)cs1)c(=O)n(C)c(=O)n2C [Example 60, N1-{-4-(2-Fluoro-4-(trifluoromethyl)phenyl]-1,3-thiazol-2-yl}-2-(1,3,6-trimethyl-2,4-dioxo-1,2,3,4-tetrahydrofuro[2,3-d]pyrimidin-5-yl)acetamide]	7.00 to 7.30	> 7.30	99.7%	99.3%	–	–	–
Cc1oc2c(c1CC(=O)Nc1nc(-c3cccc(C(F)(F)F)c3F)cs1)c(=O)n(C)c(=O)n2C [Example 61, N1-{4-[2-Fluoro-3-(trifluoromethyl)phenyl]-1,3-thiazol-2-yl}-2-(1,3,6-trimethyl-2,4-dioxo-1,2,3,4-tetrahydrofuro[2,3-d]pyrimidin-5-yl)acetamide]	> 7.30	> 7.30	–	–	–	–	–
Cc1oc2c(c1CC(=O)Nc1nc(-c3cc(F)cc(C(F)(F)F)c3)cs1)c(=O)n(C)c(=O)n2C [Example 62, N1-{4-[3-Fluoro-5-(trifluoromethyl)phenyl]-1,3-thiazol-2-yl}-2-(1,3,6-trimethyl-2,4-dioxo-1,2,3,4-tetrahydrofuro[2,3-d]pyrimidin-5-yl)acetamide]	> 7.30	> 7.30	–	–	–	–	–
Cc1oc2c(c1CC(=O)Nc1nc(-c3cc(C(F)(F)F)ccc3F)cs1)c(=O)n(C)c(=O)n2C [Example 63, N1-{4-[2-Fluoro-5-(trifluoromethyl)phenyl]-1,3-thiazol-2-yl}-2-(1,3,6-trimethyl-2,4-dioxo-1,2,3,4-tetrahydrofuro[2,3-d]pyrimidin-5-yl)acetamide]	–	7.00 to 7.30	99.8%	97.6%	–	–	–
Cc1oc2c(c1CC(=O)Nc1nc(-c3cc(Cl)cc(C(F)(F)F)c3)cs1)c(=O)n(C)c(=O)n2C [Example 65, N1-{4-[3-Chloro-5-(trifluoromethyl)phenyl]-1,3-thiazol-2-yl}-2-(1,3,6-trimethyl-2,4-dioxo-1,2,3,4-tetrahydrofuro[2,3-d]pyrimidin-5-yl)acetamide]	7.00 to 7.30	> 7.30	99.8%	99.8%	–	–	–
Cc1oc2c(c1CC(=O)Nc1nc(-c3ccc(Cl)c(OC(F)(F)F)c3)cs1)c(=O)n(C)c(=O)n2C [Example 69, N1-{4-[4-Chloro-3-(trifluoromethoxy)phenyl]-1,3-thiazol-2-yl}-2-(1,3,6-trimethyl-2,4-dioxo-1,2,3,4-tetrahydrofuro[2,3-d]pyrimidin-5-yl)acetamide]	> 7.30	> 7.30	–	–	–	–	–
Cc1oc2c(c1CC(=O)Nc1nc(-c3cc(Cl)cc(OC(F)(F)F)c3)cs1)c(=O)n(C)c(=O)n2C [Example 71]	7.00 to 7.30	> 7.30	–	–	–	–	–
Cc1oc2c(c1CC(=O)Nc1nc(-c3ccc(OC(F)F)c(Cl)c3)cs1)c(=O)n(C)c(=O)n2C [Example 72, N1-{4-[3-Chloro-4-(difluoromethoxy)phenyl]-1,3-thiazol-2-yl}-2-(1,3,6-trimethyl-2,4-dioxo-1,2,3,4-tetrahydrofuro[2,3-d]pyrimidin-5-yl)acetamide]	< 7.00	> 7.30	100%	100%	–	–	–
Cc1oc2c(c1CC(=O)Nc1nc(-c3cc(F)c(F)cc3F)cs1)c(=O)n(C)c(=O)n2C [Example 75, N1-[4-(2,4,5-Trifluorophenyl)-1,3-thiazol-2-yl]-2-(1,3,6-trimethyl-2,4-dioxo-1,2,3,4-tetrahydrofuro[2,3-d]pyrimidin-5-yl)acetamide]	7.00 to 7.30	–	–	–	–	–	7.73
Cc1oc2c(c1CC(=O)Nc1nc(-c3cc(F)c(F)c(F)c3)cs1)c(=O)n(C)c(=O)n2C [Example 76, N1-[4-(3,4,5-Trifluorophenyl)-1,3-thiazol-2-yl]-2-(1,3,6-trimethyl-2,4-dioxo-1,2,3,4-tetrahydrofuro[2,3-d]pyrimidin-5-yl)acetamide]	7.00 to 7.30	–	–	–	–	–	8.12
Cc1oc2c(c1CC(=O)Nc1nc(-c3ccc(F)c(F)c3F)cs1)c(=O)n(C)c(=O)n2C [Example 77, N1-[4-(2,3,4-Trifluorophenyl)-1,3-thiazol-2-yl]-2-(1,3,6-trimethyl-2,4-dioxo-1,2,3,4-tetrahydrofuro[2,3-d]pyrimidin-5-yl)acetamide]	–	–	98.5%	99.2%	–	–	7.72
Cc1oc2c(c1CC(=O)Nc1nc(-c3ccc(F)c(Cl)c3F)cs1)c(=O)n(C)c(=O)n2C [Example 78, N1-[4-(3-Chloro-2,4-difluorophenyl)-1,3-thiazol-2-yl]-2-(1,3,6-trimethyl-2,4-dioxo-1,2,3,4-tetrahydrofuro[2,3-d]pyrimidin-5-yl)acetamide]	–	–	94.8%	94.5%	–	–	7.46
Cc1oc2c(c1CC(=O)Nc1nc(-c3cc(F)c(OCC(C)(C)C)c(F)c3)cs1)c(=O)n(C)c(=O)n2C [Example 80]	> 7.30	–	–	–	–	–	8.44

Now from value to compound:

pIC50 (rat TRPA1)	pIC50 (human TRPA1; class symbols)	inhibition at 10 µM (rat TRPA1)	inhibition at 1 µM (rat TRPA1)	inhibition at 1 µM (human TRPA1)	inhibition at 10 µM (human TRPA1)	pIC50 (human TRPA1; numeric values)	SMILES
> 7.30	> 7.30	–	–	–	–	–	Cc1oc2c(c1CC(=O)Nc1nc(-c3ccc(F)c(C(F)(F)F)c3)cs1)c(=O)n(C)c(=O)n2C [Example 58, N1-{4-[4-Fluoro-3-(trifluoromethyl)phenyl]-1,3-thiazol-2-yl}-2-(1,3,6-trimethyl-2,4-dioxo-1,2,3,4-tetrahydrofuro[2,3-d]pyrimidin-5-yl)acetamide]
7.00 to 7.30	> 7.30	–	–	–	–	–	Cc1oc2c(c1CC(=O)Nc1nc(-c3ccc(C(F)(F)F)c(F)c3)cs1)c(=O)n(C)c(=O)n2C [Example 59, N1-{4-[3-Fluoro-4-(trifluoromethyl)phenyl]-1,3-thiazol-2-yl}-2-(1,3,6-trimethyl-2,4-dioxo-1,2,3,4-tetrahydrofuro[2,3-d]pyrimidin-5-yl)acetamide]
> 7.30	> 7.30	–	–	–	–	–	Cc1oc2c(c1CC(=O)Nc1nc(-c3ccc(Cl)c(C(F)(F)F)c3)cs1)c(=O)n(C)c(=O)n2C [Example 64, N1-{4-[4-Chloro-3-(trifluoromethyl)phenyl]-1,3-thiazol-2-yl}-2-(1,3,6-trimethyl-2,4-dioxo-1,2,3,4-tetrahydrofuro[2,3-d]pyrimidin-5-yl)acetamide]
–	–	98.5%	99.8%	99.4%	99.8%	–	Cc1oc2c(c1CC(=O)Nc1nc(-c3ccc(C(F)(F)F)c(Cl)c3)cs1)c(=O)n(C)c(=O)n2C [Example 66, N1-{4-[3-Chloro-4-(trifluoromethyl)phenyl]-1,3-thiazol-2-yl}-2-(1,3,6-trimethyl-2,4-dioxo-1,2,3,4-tetrahydrofuro[2,3-d]pyrimidin-5-yl)acetamide]
> 7.30	> 7.30	–	–	–	–	–	Cc1oc2c(c1CC(=O)Nc1nc(-c3ccc(OC(F)(F)F)c(F)c3)cs1)c(=O)n(C)c(=O)n2C [Example 67, N1-{4-[3-Fluoro-4-(trifluoromethoxy)phenyl]-1,3-thiazol-2-yl}-2-(1,3,6-trimethyl-2,4-dioxo-1,2,3,4-tetrahydrofuro[2,3-d]pyrimidin-5-yl)acetamide]
> 7.30	> 7.30	–	–	–	–	–	Cc1oc2c(c1CC(=O)Nc1nc(-c3ccc(F)c(OC(F)(F)F)c3)cs1)c(=O)n(C)c(=O)n2C [Example 68, N1-{4-[4-Fluoro-3-(trifluoromethoxy)phenyl]-1,3-thiazol-2-yl}-2-(1,3,6-trimethyl-2,4-dioxo-1,2,3,4-tetrahydrofuro[2,3-d]pyrimidin-5-yl)acetamide]
> 7.30	> 7.30	–	–	–	–	–	Cc1oc2c(c1CC(=O)Nc1nc(-c3ccc(OC(F)(F)F)c(Cl)c3)cs1)c(=O)n(C)c(=O)n2C [Example 70, N1-{4-[3-Chloro-4-(trifluoromethoxy)phenyl]-1,3-thiazol-2-yl}-2-(1,3,6-trimethyl-2,4-dioxo-1,2,3,4-tetrahydrofuro[2,3-d]pyrimidin-5-yl)acetamide]
–	> 7.30	100%	100%	–	–	–	Cc1oc2c(c1CC(=O)Nc1nc(-c3ccc(OCC(F)(F)F)c(F)c3)cs1)c(=O)n(C)c(=O)n2C [Example 73, N1-{4-[3-Fluoro-4-(2,2,2-trifluoroethoxy)phenyl]-1,3-thiazol-2-yl}-2-(1,3,6-trimethyl-2,4-dioxo-1,2,3,4-tetrahydrofuro[2,3-d]pyrimidin-5-yl)acetamide]
> 7.30	> 7.30	100%	100%	–	–	–	Cc1oc2c(c1CC(=O)Nc1nc(-c3ccc(OCC(F)(F)F)c(Cl)c3)cs1)c(=O)n(C)c(=O)n2C [Example 74, N1-{4-[3-Chloro-4-(2,2,2-trifluoroethoxy)phenyl]-1,3-thiazol-2-yl}-2-(1,3,6-trimethyl-2,4-dioxo-1,2,3,4-tetrahydrofuro[2,3-d]pyrimidin-5-yl)acetamide]

Source: patent US20120178766A1, “FUROPYRIMIDINEDIONE DERIVATIVES AS TRPAI MODULATORS” (priority 2009, published 2012)
